Target: AzoA (Enterococcus faecalis, UniProt Q831B2)
Assay: spectroscopy of purified protein, FMN to protein molar ratio
Type: binding
Conditions: co-purified flavin; two sites per homodimer

AzoA, sequence (Q831B2 whole entry): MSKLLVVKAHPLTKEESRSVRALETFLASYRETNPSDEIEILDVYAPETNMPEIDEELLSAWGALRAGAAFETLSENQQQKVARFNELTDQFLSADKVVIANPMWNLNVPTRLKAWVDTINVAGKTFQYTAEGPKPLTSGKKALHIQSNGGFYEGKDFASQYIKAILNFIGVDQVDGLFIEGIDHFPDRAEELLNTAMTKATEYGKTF

Cc1cc2nc3c(=O)[nH]c(=O)nc-3n(C[C@H](O)[C@H](O)[C@H](O)COP(=O)(O)O)c2cc1C [FMN]
spectroscopy of purified protein, FMN to protein molar ratio: suggesting that two FMN molecules bind to an AzoA (wild-type and mutants)
